Experiment [1] addresses T1, EPHB2 (Homo sapiens, UniProt P29323).
T1 construct: purchased Reaction Biology Europe GmbH
T1 sequence (P29323 19-1055): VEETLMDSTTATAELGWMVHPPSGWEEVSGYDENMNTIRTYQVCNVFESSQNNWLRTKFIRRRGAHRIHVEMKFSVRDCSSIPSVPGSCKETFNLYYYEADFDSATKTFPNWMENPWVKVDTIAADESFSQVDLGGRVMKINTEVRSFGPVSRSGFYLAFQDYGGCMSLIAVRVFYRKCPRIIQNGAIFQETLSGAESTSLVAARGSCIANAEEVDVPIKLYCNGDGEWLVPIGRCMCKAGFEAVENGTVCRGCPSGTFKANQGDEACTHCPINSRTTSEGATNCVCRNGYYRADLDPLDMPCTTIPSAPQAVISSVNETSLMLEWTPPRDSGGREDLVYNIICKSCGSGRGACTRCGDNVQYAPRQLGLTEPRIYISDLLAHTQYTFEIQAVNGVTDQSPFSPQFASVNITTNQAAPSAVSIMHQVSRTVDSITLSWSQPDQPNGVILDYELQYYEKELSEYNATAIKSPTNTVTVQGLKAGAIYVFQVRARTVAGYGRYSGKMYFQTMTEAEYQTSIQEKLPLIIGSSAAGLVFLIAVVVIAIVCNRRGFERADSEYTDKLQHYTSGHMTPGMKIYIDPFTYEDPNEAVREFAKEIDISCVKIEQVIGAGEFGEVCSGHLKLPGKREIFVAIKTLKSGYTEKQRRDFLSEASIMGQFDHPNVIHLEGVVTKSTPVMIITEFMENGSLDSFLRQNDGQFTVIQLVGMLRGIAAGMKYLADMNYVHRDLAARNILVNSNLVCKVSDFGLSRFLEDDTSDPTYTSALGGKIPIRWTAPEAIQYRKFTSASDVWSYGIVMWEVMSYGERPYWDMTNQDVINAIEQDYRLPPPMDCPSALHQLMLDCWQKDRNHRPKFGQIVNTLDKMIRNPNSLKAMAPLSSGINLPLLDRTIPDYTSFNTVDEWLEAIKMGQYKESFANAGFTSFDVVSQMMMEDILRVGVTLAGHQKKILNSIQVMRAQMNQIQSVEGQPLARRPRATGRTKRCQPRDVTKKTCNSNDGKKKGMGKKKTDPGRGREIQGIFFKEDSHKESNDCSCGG
The experiment is described as follows: PanQinase kinase panel: EPHB2. It counts as biochemical. The conditions noted are these: read-out: INHIBITORY EFFECT @ 1 uM: EPHB2. As for the experimental part:
Screening procedures were performed in accordance with the company's on-line protocol [accessed on-line Mar.
For each kinase, the median value of the cpm of three wells was defined as “low control” (n=3). This value reflects unspecific binding of radioactivity to the plate in the absence of a protein kinase but in the presence of the substrate. Additionally, for each kinase the median value of the cpm of three other wells was taken as the “high control,” i.e. full activity in the absence of any inhibitor (n=3). The difference between high and low control of each enzyme was taken as 100% activity.
As part of the data evaluation the low control of each kinase was subtracted from the high control value as well as from their corresponding “compound values”. The residual activity (in %) for each compound well was calculated by using the following formula: Res. Activity (%)=100×[(signal of compound−low control)/(high control−low control)].

In experiment [2] the test system is MWCL-1. The experiment is described as follows: Apoptosis assay (annexin V flow cytometry) in Waldenstrom's Macroglobulinemia cells. It counts as cell-based, human. The note with it: for IC50: Homo sapiens, read-out: Apoptosis IC50 (μM) in single-mutant WM Cell Lines (MWCL-1); for promoting apoptosis in WM cells (MWCL-1) compared with ibrutinib or zanubrutinib alone: in words. As for the experimental part:
Waldenström's Macroglobulinemia cells (MWCL-1) and the bone marrow stromal cells (BMSCs; HS-27A) were used in this study. The MWCL-1 is a lymphoplasmacytic lymphoma established from the bone marrow aspirate of a patient diagnosed with Waldenström's Macroglobulinemia. It was provided by Dr Stephen M. Ansell (MAYO file number 2021-121; 200 First Street SW, Rochester, Minnesota). This cell line was cultured in RPMI-1640 (Fisher Scientific) containing 10% fetal bovine serum (FBS) (Sigma Aldrich, St Louis, MO), 100U/ml of Penicillin-Streptomycin (Gibco™, ThermoFisher Scientific). The HS-27A bone marrow stromal cells were obtained from ATCC. They were maintained in RPMI 1640 (Fisher Scientific) supplemented with 100U/ml of Penicillin-Streptomycin (Gibco™, ThermoFisher Scientific) and 10% FBS (TakaraBio). Cells were cultured in a 37° C. tissue culture CO2 incubator.
For studies with compounds using a co-culture system of MWCL-1 and BMSCs, BMSCs were cultured in a 96-, 48- or 24-well plates and cultured until the 90% confluence was reached. […] After 1 hour, the MWCL-Icells were added to the BMSC to create a co-culture system. The cells were co-incubated for 72 hours. After incubation time, cell viability, apoptosis, and IgM release were measured.
For studying the effect of compounds on inducing apoptosis of Waldenström Macroglobulinemia cells (MWCL-1). Cells were washed with PBS, resuspended in Annexin V binding buffer (Biolegend), and stained with Alexa Fluor 647 annexin V (Biolegend), Propidium Iodide (BD Pharmigen), and CD45 antibody (Biolegend) for 15 minutes at RT and analyzed by flow cytometry. Data were collected on an CytoFLEX S Flow Cytometer (Beckman Coulter) and analysed with FCS Express Software (De Novo Software). Annexin V positive cells were considered apoptotic.

Where two headings read alike, the source gives them in different places.

Regarding `O=C(c1ccc(Oc2ccccc2)cc1Cl)c1c[nH]c2ncnc(N[C@@H]3CC[C@@H](CO)OC3)c12` [ARQ-531, (2-chloro-4-phenoxyphenyl) (4-(((3R,6S)-6-(hydroxymethyl)tetrahydro-2H-pyran-3-yl)amino)-7H-pyrrolo[2,3-d]pyrimidin-5-yl) methanone], the inhibition at 1 µM in experiment [1] is 70 to 89%.

Usually IC50 stands for the concentration that gives 50% inhibition. On to `Cc1cccnc1[C@H]1CCC[C@@H](c2ncccc2C)N1CCN1CCN(C(=O)c2ccc(-c3cc4c(-c5cccc(NC(=O)c6ccccc6)c5C)ncnc4[nH]3)cc2)CC1` [Compound I-10, N-(3-(6-(4-(4-(2-((2R,6S)-2,6-bis(3-methylpyridin-2-yl)piperidin-1-yl)ethyl)piperazine-1-carbonyl)phenyl)-7H-pyrrolo[2,3-d]pyrimidin-4-yl)-2-methylphenyl)benzamide], for which, in experiment [2] (class symbol), the IC50 lay within 0.1 to 2 µM. Moreover, in experiment [2], the “promoting apoptosis in WM cells (MWCL-1) compared with ibrutinib or zanubrutinib alone” value is reported as “more effective in promoting apoptosis”. For the same molecule, the inhibition at 1 µM in experiment [1] was under 50%.

`Cc1cc(-c2ccnc(Nc3cnn(CCN4[C@@H](c5ncccc5C)CCC[C@H]4c4ncccc4C)c3)n2)ccc1CNC(=O)N1CC(OC(C)C)C1` [Compound I-11]: the IC50 in experiment [2] (class symbol) was 0.1 to 2 µM. Besides, the “promoting apoptosis in WM cells (MWCL-1) compared with ibrutinib or zanubrutinib alone” value in experiment [2] is recorded as “more effective in promoting apoptosis”.

Regarding `COc1ccc(F)cc1C(=O)NCc1ccc(-c2nn([C@@H](C)C(F)(F)F)c(N)c2C(N)=O)cc1` [LOXO-305, pirtobrutinib], the inhibition at 1 µM in experiment [1] was under 50%.

Take `C=CC(=O)N1CCC([C@@H]2CCNc3c(C(N)=O)c(-c4ccc(Oc5ccccc5)cc4)nn32)CC1` [Zanubrutinib, (7S)-2-(4-phenoxyphenyl)-7-(1-prop-2-enoylpiperidin-4-yl)-4,5,6,7-tetrahydropyrazolo[1,5-a]pyrimidine-3-carboxamide]: in experiment [2] (numeric), the half-inhibitory concentration (IC50) amounted to 17.7 µM. In addition, in experiment [1], the inhibition at 1 µM is under 50%.
